Test results as given in the NIST ThermoML archive (doi:10.1016/j.tca.2006.10.025).

Key:
[1] = molar heat capacity at constant pressure; xn = mol fraction of the nth substance listed; conditions: 303.15 K, 101 kPa, Liquid, Small sample (50 mg) DSC
[2] = excess molar enthalpy (molar enthalpy of mixing); xn = mol fraction of the nth substance listed; conditions: 303.15 K, 101 kPa, Liquid, Flow calorimetry
[3] = molar heat capacity at constant pressure; conditions: 101.33 kPa, Liquid, Small sample (50 mg) DSC
[4] = 303.15 K; 101.33 kPa; Liquid; Vibrating tube method

CCCCCCO [hexan-1-ol] + C[S+](C)[O-]
Conditions	excess molar enthalpy [kcal/mol]	molar heat capacity at constant pressure [J/K/mol]
[1], x2 = 0.1102	–	239.9
[1], x2 = 0.1949	–	231.7
[1], x2 = 0.2888	–	222.5
[1], x2 = 0.3759	–	216.5
[1], x2 = 0.4388	–	211.5
[1], x2 = 0.535	–	199.2
[1], x2 = 0.5365	–	199.4
[1], x2 = 0.6311	–	190.4
[1], x2 = 0.7339	–	181.8
[1], x2 = 0.8062	–	171
[1], x2 = 0.8704	–	164.7
[1], x2 = 0.9359	–	158.8
[2], x2 = 0.0682	0.0863	–
[2], x2 = 0.1277	0.153	–
[2], x2 = 0.1801	0.202	–
[2], x2 = 0.2265	0.241	–
[2], x2 = 0.3053	0.286	–
[2], x2 = 0.3694	0.31	–
[2], x2 = 0.4677	0.325	–
[2], x2 = 0.5394	0.326	–
[2], x2 = 0.6374	0.307	–
[2], x2 = 0.7251	0.278	–
[2], x2 = 0.7786	0.248	–
[2], x2 = 0.8406	0.207	–
[2], x2 = 0.8755	0.178	–
[2], x2 = 0.9134	0.134	–
[2], x2 = 0.9336	0.109	–
[2], x2 = 0.9547	0.0791	–
[2], x2 = 0.9768	0.0433	–

CCO [ethanol]
[3]
Conditions	molar heat capacity at constant pressure [J/K/mol]
288.15 K	108.8
293.15 K	111
298.15 K	113.5
303.15 K	115.7
308.15 K	118.6
313.15 K	121.6
318.15 K	125.1
323.15 K	128.2

Conditions	mass density [kg/m3]
[4]	780.79

C[S+](C)[O-] [dimethyl sulfoxide] + CCCCO
Conditions	excess molar enthalpy, [2] [kcal/mol]	molar heat capacity at constant pressure, [1] [J/K/mol]
x1 = 0.051	0.0715	–
x1 = 0.0874	–	175.2
x1 = 0.097	0.124	–
x1 = 0.1288	–	172.3
x1 = 0.1385	0.164	–
x1 = 0.1769	0.189	–
x1 = 0.2324	–	167
x1 = 0.2438	0.221	–
x1 = 0.3007	0.236	–
x1 = 0.364	–	161.2
x1 = 0.3921	0.255	–
x1 = 0.4541	–	158
x1 = 0.4622	0.254	–
x1 = 0.5633	0.245	–
x1 = 0.5775	–	155.4
x1 = 0.6568	–	152.7
x1 = 0.6594	0.223	–
x1 = 0.7207	0.201	151.6
x1 = 0.7577	–	150.8
x1 = 0.7947	0.171	–
x1 = 0.8377	0.144	–
x1 = 0.8537	–	150.3
x1 = 0.8856	0.112	–
x1 = 0.9117	0.0901	–
x1 = 0.919	–	150
x1 = 0.9393	0.0652	–
x1 = 0.9542	–	151.5
x1 = 0.9687	0.0356	–

C[S+](C)[O-] [dimethyl sulfoxide]
[3]
Conditions	molar heat capacity at constant pressure [J/K/mol]
288.15 K	147.8
293.15 K	149.4
298.15 K	151.5
303.15 K	152.4
308.15 K	153.4
313.15 K	155.4
318.15 K	155.6
323.15 K	156.6

Conditions	mass density [kg/m3]
[4]	1090.45

C[S+](C)[O-] [dimethyl sulfoxide] + CCO
Conditions	excess molar enthalpy [kcal/mol]	molar heat capacity at constant pressure [J/K/mol]
[1], x1 = 0.0356	–	117.9
[1], x1 = 0.0504	–	119.1
[1], x1 = 0.1092	–	121.7
[1], x1 = 0.1636	–	121.8
[1], x1 = 0.2647	–	124.6
[1], x1 = 0.3441	–	126.3
[1], x1 = 0.4469	–	129.9
[1], x1 = 0.557	–	133
[1], x1 = 0.6498	–	136.8
[1], x1 = 0.7615	–	141
[1], x1 = 0.8872	–	146.6
[1], x1 = 0.9408	–	148
[2], x1 = 0.0332	0.0294	–
[2], x1 = 0.0642	0.0514	–
[2], x1 = 0.0933	0.0672	–
[2], x1 = 0.1207	0.0813	–
[2], x1 = 0.1707	0.0978	–
[2], x1 = 0.2154	0.109	–
[2], x1 = 0.2917	0.12	–
[2], x1 = 0.3543	0.122	–
[2], x1 = 0.4516	0.117	–
[2], x1 = 0.5527	0.106	–
[2], x1 = 0.6222	0.0949	–
[2], x1 = 0.7119	0.077	–
[2], x1 = 0.7671	0.0652	–
[2], x1 = 0.8317	0.0483	–
[2], x1 = 0.8682	0.0375	–
[2], x1 = 0.9081	0.0282	–
[2], x1 = 0.9518	0.0148	–

CCCCCCCCCCO [decan-1-ol] + C[S+](C)[O-]
Conditions	excess molar enthalpy [kcal/mol]	molar heat capacity at constant pressure [J/K/mol]
[1], x2 = 0.0868	–	355.3
[1], x2 = 0.1641	–	338
[1], x2 = 0.2592	–	316.3
[1], x2 = 0.4231	–	282.4
[1], x2 = 0.5259	–	259.2
[1], x2 = 0.6431	–	235.2
[1], x2 = 0.7082	–	221.4
[1], x2 = 0.7997	–	201
[1], x2 = 0.8618	–	186.2
[1], x2 = 0.8908	–	179.2
[1], x2 = 0.9159	–	172.9
[1], x2 = 0.9596	–	162.1
[2], x2 = 0.1006	0.111	–
[2], x2 = 0.1828	0.209	–
[2], x2 = 0.2512	0.277	–
[2], x2 = 0.3091	0.317	–
[2], x2 = 0.4016	0.353	–
[2], x2 = 0.4722	0.364	–
[2], x2 = 0.573	0.36	–
[2], x2 = 0.6414	0.353	–
[2], x2 = 0.7286	0.328	–
[2], x2 = 0.8011	0.301	–
[2], x2 = 0.843	0.271	–
[2], x2 = 0.8895	0.228	–
[2], x2 = 0.9148	0.196	–
[2], x2 = 0.9416	0.15	–
[2], x2 = 0.9555	0.118	–
[2], x2 = 0.9699	0.0846	–
[2], x2 = 0.9847	0.0457	–

CCCCCCO [hexan-1-ol]
[3]
Conditions	molar heat capacity at constant pressure [J/K/mol]
288.15 K	231.6
293.15 K	237.5
298.15 K	241.3
303.15 K	246
308.15 K	251
313.15 K	256.2
318.15 K	262.5
323.15 K	268.9

Conditions	mass density [kg/m3]
[4]	811.39
